PubChem BioAssay AID1189 (EPA DSSTox, 2008)
The source made the active and inactive calls.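 The calls were made as follows: active = a tumor-causing dose value with its tumor site reported for any sex and species group of a rodent or other animal cancer study; inconclusive = only studies judged inadequate by the national testing program; inactive = tested in at least one study, none positive.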

Test: DSSTox (CPDBAS) Carcinogenic Potency Database Summary SingleCellCall Results
Conditions: animal chronic carcinogenicity bioassays, CPDB summary call
Outline: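 Categorical carcinogenicity call compiled from published chronic rodent and other animal cancer bioassays; based on the most positive result across experiments for each sex-species, assigned on minimal evidence for or against activity.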

Row | Compound | outcome
1 | CCCN(N)C=O | active
2 | Cn1c(N)nc2c3cccnc3ccc21 | active; inactive
3 | ClC(Cl)=C(c1ccc(Cl)cc1)c1ccc(Cl)cc1 | active
4 | CN(N=O)c1ccc(F)cc1 | active
5 | [CH3][Hg][Cl] | active
6 | NCCNc1cccc2ccccc12 | inactive; active
7 | CC(=O)Nc1ccc(CC(=O)O)cc1 | inactive
8 | Cc1ccc(Cc2cnc(NCCSCc3ccc(CN(C)C)o3)[nH]c2=O)cn1 | active
9 | CCCCCN(N=O)C(=O)OCC | active
10 | O=[N+]([O-])c1ccc(Nc2ccc(Nc3ccccc3)c(S(=O)(=O)O)c2)c([N+](=O)[O-])c1 | active; inactive
11 | NC1=NC(=O)C(c2ccccc2)O1 (stereo unspecified) | inactive; active
12 | CO[C@@]12[C@H](COC(N)=O)C3=C(C(=O)C(C)=C(N)C3=O)N1C[C@@H]1N[C@@H]12 | active
13 | Nc1ccc(N)c2c1C(=O)c1c(N)ccc(N)c1C2=O | active
14 | O=C(O)C1[O][Sb]2[O]C(=O)C([O]2)C(C(=O)O)[O][Sb]2[O]C(=O)C1[O]2 (stereo unspecified) | inactive
15 | Oc1c(Cl)cc(Cl)cc1Sc1cc(Cl)cc(Cl)c1O | inactive
16 | CCN(CC)C(=S)S[Se](SC(=S)N(CC)CC)(SC(=S)N(CC)CC)SC(=S)N(CC)CC | active; inactive
17 | CNC(=S)NC | inactive
18 | C[C@]12CC[C@@H]3c4ccc(O)cc4CC[C@H]3[C@@H]1CC[C@@H]2O | inactive
19 | CC1CN(N=O)CC(C)N1C (stereo unspecified) | active
20 | CN(C)C=O | inactive; active
21 | O[C@@H]([C@H](O)[C@@H](O)CBr)[C@@H](O)CBr | active
22 | Cc1c(COC(=O)C2C(/C=C(\Cl)C(F)(F)F)C2(C)C)cccc1-c1ccccc1 (stereo unspecified) | inactive; active
23 | C[C@@H]1C/C=C/C=C/C=C/C=C/[C@H](O[C@@H]2O[C@H](C)[C@@H](O)[C@H](N)[C@@H]2O)C[C@@H]2O[C@](O)(C[C@@H](O)C[C@H]3O[C@@H]3/C=C/C(=O)O1)C[C@H](O)[C@H]2C(=O)O | inactive

Row | Compound | outcome
24 | CC(I)C1OCC(CO)O1 (stereo unspecified) | active
25 | COc1cc(/C=C/C(=O)O[C@H]2CC[C@]34C[C@]35CC[C@]3(C)[C@@H]([C@H](C)CCC=C(C)C)CC[C@@]3(C)[C@@H]5CC[C@H]4C2(C)C)ccc1O | inactive
26 | O=CNNc1nc(-c2ccc([N+](=O)[O-])o2)cs1 | active
27 | [Cl-].[Cl-].[Cl-].[Fe+3] | inactive
28 | CC(Cl)Cl | inactive; active
29 | CN(N=O)C(=O)N[C@@H]1[C@@H](O)[C@H](O)[C@@H](CO)O[C@@H]1O | active
30 | ON=C1CCCC1 | active; inactive
31 | CCOC(=O)N(CC)N=O | active; inactive
32 | C=CCN(CC(O)CO)N=O (stereo unspecified) | active
33 | CC(N)Cc1ccccc1 (stereo unspecified) | inactive
34 | Cc1ccc2cc3c(ccc4ccccc43)c3c2c1CC3 | active; inactive
35 | C=C1C[C@@]23CC[C@H]4[C@@](C)(CCC[C@@]4(C)C(=O)O[C@@H]4O[C@H](CO)[C@@H](O)[C@H](O)[C@H]4O)[C@@H]2CC[C@]1(O[C@@H]1O[C@H](CO)[C@@H](O)[C@H](O)[C@H]1O[C@@H]1O[C@H](CO)[C@@H](O)[C@H](O)[C@H]1O)C3 | inactive
36 | CCOP(=S)(OCC)Oc1nc(Cl)c(Cl)cc1Cl | inactive
37 | C1CCOC1 | active; inactive
38 | OC[C@H]1O[C@@](CO)(O[C@H]2O[C@H](CO)[C@@H](O)[C@H](O)[C@H]2O)[C@@H](O)[C@@H]1O | inactive
39 | OCCO | inactive
40 | Cc1nc(N)cc2[nH]c3ccccc3c12 | active
41 | C=C(C)[C@H]1CC=C(C)CC1 | active
42 | CC1=C(/C=C/C(C)=C/C=C/C(C)=C/C(=O)O)C(C)(C)CCC1 | inactive
43 | C=CCN(CCO)N=O | active
44 | CCCCCCCCCCN(C)N=O | active
45 | NNC(N)=S | inactive
46 | CCCCCCCN | inactive
